What all share (format): cell-based
The test system of experiment [1] is Wnt activity (Sp5-Luc reporter, human Sp5 promoter with eight TCF/LEF binding sites) in SW480 colon carcinoma cells. Description: Screening assay for Wnt activity: Sp5-Luc reporter gene assay in SW480 cells. The following applies: for inhibition at 10 µM: read-out: percent inhibition at 10 μM (given for EC50 of >10 μM); for EC50: 10-point dose-response starting from 10 μM, overnight incubation. An excerpt: The screening assay for Wnt activity is described as follows. Reporter cell lines can be generated by stably transducing cancer cell lines (e.g., colon cancer) or primary cells (e.g., IEC-6 intestinal cells) with a lentiviral construct that includes a Wnt-responsive promoter driving expression of the firefly luciferase gene.
SW480 colon carcinoma cells were transduced with a lentiviral vector expressing luciferase with a human Sp5 promoter consisting of a sequence of eight TCF/LEF binding sites. SW480 cells stably expressing the Sp5-Luc reporter gene and a hygromycin resistance gene were selected by treatment with 150 μg/mL of hygromycin for 7 days. These stably transduced SW480 cells were expanded in cell culture and used for all further screening activities. Each compound was dissolved in DMSO as a 10 mM stock and used to prepare compound source plates. Serial dilution (1:3, 10-point dose-response curves starting from 10 μM) and compound transfer was performed using the ECHO 550 (Labcyte, Sunnyvale, Calif.) into 384-well white solid bottom assay plates (Greiner Bio-One) with appropriate DMSO backfill for a final DMSO concentration of 0.1%. For Sp5-Luc reporter gene assays, the cells were plated at 4,000 cells/well in 384-well plates with medium containing 1% fetal bovine serum and incubated overnight at 37° C. and 5% CO2. Following incubation, 20 μl of BrightGlo luminescence reagent (Promega) was added to each well of the 384-well assay plates. The plates were placed on an orbital shaker for 2 min and then luminescence was quantified using the Envision (Perkin Elmer) plate reader. Readings were normalized to DMSO only treated cells, and normalized activities were utilized for EC50 calculations using the dose-response log (inhibitor) vs. response -variable slope (four parameters) nonlinear regression feature available in GraphPad Prism 5.0 (or Dotmatics). For EC50 of >10 μM, the percent inhibition at 10 μM is provided.
On the technique in general: In a reporter assay the amount or activity of a reporter protein is the signal.

Another experiment deals with SW480 colon cancer cells. Description: Cell viability assay (CellTiter-Blue) in SW480 colon cancer cells. The following applies: Homo sapiens, 96 h; for inhibition at 10 µM: four days, CellTiter-Blue, read-out: percent inhibition at 10 μM (given for EC50 of >10 μM); for EC50: four days incubation, CellTiter-Blue cell viability. As to the method: Representative compounds were screened using the following assay procedure to assess the effect on cell viability as described below.
Each compound was dissolved in DMSO as a 10 mM stock and used to prepare compound source plates. Serial dilution (1:3, 8-point dose-response curves from 10 μM to 0.004 μM) and compound transfer was performed using the ECHO 550 (Labcyte, Sunnyvale, Calif.) into 96-well clear bottom, black-walled plates (Corning-Costar).
Approximately 2×10^3 SW480 colon cancer cells were seeded into each well and allowed to incubate in the presence or absence of compound for four days at 37° C./5% CO2. Eight replicates of DMSO-treated cells served as controls and cells treated with compound were performed in duplicate.
After incubation, 20 μL of CellTiter-Blue (Promega) was added to each well allowed to incubate for approximately 3 hours. This reagent was a buffered solution which contains resazurin, metabolically active cells were able to reduce rezarurin (blue) into resorufin (pink) which was highly fluorescent. This measured fluorescence was used as a readout for cell viability.
After incubation, the plates were read at Ex 560 nm Em 590 nm (Cytation 3, BioTek). Dose-response curves were generated and EC50 concentration values were calculated using non-linear regression curve fit in the GraphPad Prism (San Diego, Calif.) or Dotmatics' Studies Software (Bishops Stortford, UK). For EC50 of >10 μM, the percent inhibition at 10 μM is provided.
A general note: Alamar Blue is a resazurin reagent that responds to reducing activity.

The test system of a further experiment is IL-6 in THP-1 cells. Description: Inhibition of IL-6 in LPS-stimulated THP-1 human monocyte cells (HTRF). The following applies: IL-6 HTRF; for EC50: 500 ng/mL LPS, 22 hours; for inhibition at 10 µM: LPS, read-out: percent inhibition in brackets (given for EC50 >10 μM). As for the experimental part:
Human Monocyte Cell Culture: Human monocyte cell line (THP-1 cells; Catalog # TIB-202, ATCC, Manassas, Va.) were cultured in Roswell Park Memorial Institute (RPMI) 1640 Medium (Catalog #21870-100, Buffalo, N.Y.) with 1% L-glutamine, 1% HEPES, 1% Sodium Pyruvate, 2% Sodium Bicarbonate supplemented with 100 units/mL penicillin, 50 μg/mL streptomycin, 2-mercaptoethanol (0.05 mM) [basal medium] and 10% fetal bovine serum (Catalog #16140089, Life Technologies, Carlsbad, Calif.) at 37° C. and 5% CO2.
Compound Screening: THP-1 cells were cultured in basal media with 1% FBS for 24 hours before the start of the assay. Each compound was dissolved in DMSO as a 10 mM stock and used to prepare compound source plates. Serial dilution (1:3, 10-point dose-response curves starting from 10 μM) and compound transfer was performed using the ECHO 550 (Labcyte, Sunnyvale, Calif.) into 384-well white low volume assay plates (Greiner Bio-One) with appropriate DMSO backfill for a final DMSO concentration of 0.1%. THP-1 cells were plated at 5000 cells/well in the 384-well plates and incubated at 37° C. for 2 h. 500 ng/mL of LPS was added after 2 hours and cells were incubated for another 22 hours at 37° C. Plates were spun in a centrifuge for 1 minute at […] and a mixture of anti-IL6 XL665, and anti-IL6 Cryptate diluted in reconstitution buffer (Cisbio Inc.) was added to each well. Following incubation for 3 hrs at room temperature, Homogeneous Time-Resolved Fluorescence (HTRF) was measured using the Envision (Perkin Elmer) at 665 nm and […]. The ratio of fluorescence at 665 nm to 620 nm was used as a readout for IL6 quantification. All samples were processed in duplicate. Readings were normalized to DMSO treated cells and normalized activities were utilized for EC50 calculations using the dose-response log (inhibitor) vs. response -variable slope (four parameters) nonlinear regression feature available in GraphPad Prism 5.0 (or Dotmatics). For EC50 of >10 μM, the percent inhibition at 10 μM is provided.

The structures appear in SMILES notation.

A word on the inhibition: it is the share of the control response that was lost under treatment. Usually EC50 stands for the concentration that produces a half-maximal response. `CN(C)CCOc1cncc(-c2ccc3[nH]nc(-c4nc5c(-c6cccs6)cncc5[nH]4)c3n2)c1` [Compound 663, N,N-Dimethyl-2-((5-(3-(7-(thiophen-2-yl)-3H-imidazo[4,5-c]pyridin-2-yl)-1H-pyrazolo[4,3-b]pyridin-5-yl)pyridin-3-yl)oxy)ethan-1-amine]: the results for the inhibition at 10 µM (in experiment [1]; in the experiment with SW480 colon cancer cells; in the experiment on IL-6 in THP-1 cells) were 46.7%, 15.5% and 43.8%, respectively. Besides, the EC50 (in experiment [1]; in the experiment on SW480 colon cancer cells; with IL-6 in THP-1 cells) was greater than 10 µM in each case.
Take `Fc1cccc(-c2cncc3[nH]c(-c4n[nH]c5ccc(-c6ccncc6)nc45)nc23)c1` [Compound 18, 3-(7-(3-Fluorophenyl)-3H-imidazo[4,5-c]pyridin-2-yl)-5-(pyridin-4-yl)-1H-pyrazolo[4,3-b]pyridine]: the inhibition at 10 µM in experiment [1] came to 14%; in the experiment on SW480 colon cancer cells, 6.5%; in the experiment on IL-6 in THP-1 cells it was 8.6%. The concentration giving a half-maximal response (EC50) (in experiment [1]; in the experiment with SW480 colon cancer cells; in the experiment with IL-6 in THP-1 cells) was greater than 10 µM each time.
In the case of `CS(=O)(=O)NCc1cc(F)cc(-c2cncc3[nH]c(-c4n[nH]c5ccc(-c6cncc(NC(=O)CC7CCNCC7)c6)nc45)nc23)c1` [Compound 725, N-(5-(3-(7-(3-Fluoro-5-(methylsulfonamidomethyl)phenyl)-3H-imidazo[4,5-c]pyridin-2-yl)-1H-pyrazolo[4,3-b]pyridin-5-yl)pyridin-3-yl)-2-(piperidin-4-yl)acetamide], the inhibition at 10 µM is 11.2% in experiment [1], 14.6% with SW480 colon cancer cells and 27.1% with IL-6 in THP-1 cells. The half-maximal effective concentration (EC50) (in experiment [1]; in the experiment with SW480 colon cancer cells; in the experiment with IL-6 in THP-1 cells) was greater than 10 µM throughout.
In the case of `Cc1ncc(-c2ccc3[nH]nc(-c4nc5c(-c6cccc(F)c6)cncc5[nH]4)c3n2)s1` [Compound 1081, 5-(3-(7-(3-Fluorophenyl)-3H-imidazo[4,5-c]pyridin-2-yl)-1H-pyrazolo[4,3-b]pyridin-5-yl)-2-methylthiazole], the inhibition at 10 µM was 38% in experiment [1], 23.5% in the experiment with SW480 colon cancer cells and 7.7% in the experiment with IL-6 in THP-1 cells. Besides, the EC50 (in experiment [1]; with SW480 colon cancer cells; with IL-6 in THP-1 cells) was greater than 10 µM throughout.
`c1csc(-c2cncc3[nH]c(-c4n[nH]c5ccc(-c6ccncc6)nc45)nc23)c1` [Compound 326, 5-(Pyridin-4-yl)-3-(7-(thiophen-2-yl)-3H-imidazo[4,5-c]pyridin-2-yl)-1H-pyrazolo[4,3-b]pyridine]: the values for the inhibition at 10 µM (in experiment [1]; in the experiment with SW480 colon cancer cells; with IL-6 in THP-1 cells) were 12.7%, 0% and 22.3%, respectively. Further, the EC50 (in experiment [1]; with SW480 colon cancer cells; with IL-6 in THP-1 cells) was greater than 10 µM each time.
Regarding `Fc1cccc(-c2cncc3[nH]c(-c4n[nH]c5ccc(-c6cnccn6)nc45)nc23)c1` [Compound 492, 3-(7-(3-Fluorophenyl)-3H-imidazo[4,5-c]pyridin-2-yl)-5-(pyrazin-2-yl)-1H-pyrazolo[4,3-b]pyridine], the inhibition at 10 µM in experiment [1] was determined as 13%; in the experiment with SW480 colon cancer cells, 7.5%; in the experiment on IL-6 in THP-1 cells, 24.5%. Also, the EC50 (in experiment [1]; with SW480 colon cancer cells; in the experiment with IL-6 in THP-1 cells) was greater than 10 µM throughout.
With `CC(C)CC(=O)Nc1cncc(-c2ccc3[nH]nc(-c4nc5c(-c6cccc(F)c6)cncc5[nH]4)c3n2)c1` [Compound 2, N-(5-(3-(7-(3-Fluorophenyl)-3H-imidazo[4,5-c]pyridin-2-yl)-1H-pyrazolo[4,3-b]pyridin-5-yl)pyridin-3-yl)-3-methylbutanamide], the inhibition at 10 µM in experiment [1] came to 43%; in the experiment on SW480 colon cancer cells, 0%; in the experiment with IL-6 in THP-1 cells it was 25.4%. The EC50 (in experiment [1]; with SW480 colon cancer cells; with IL-6 in THP-1 cells) was greater than 10 µM throughout.
Regarding `COc1cccc(-c2cncc3[nH]c(-c4n[nH]c5ccc(-c6cncc(OC7CCNCC7)c6)nc45)nc23)c1` [Compound 980, 3-(7-(3-Methoxylphenyl)-3H-imidazo[4,5-c]pyridin-2-yl)-5-(5-(piperidin-4-yloxy)pyridin-3-yl)-1H-pyrazolo[4,3-b]pyridine], the inhibition at 10 µM turned out to be 25.8% in experiment [1], 19.6% in the experiment on SW480 colon cancer cells and 34.1% in the experiment with IL-6 in THP-1 cells. For the same molecule, the 50% effective concentration (EC50) (in experiment [1]; with SW480 colon cancer cells; in the experiment on IL-6 in THP-1 cells) was greater than 10 µM each time.
With `CN(C)CCNc1cc(F)cc(-c2cncc3[nH]c(-c4n[nH]c5ccc(-c6cncc(OCCN7CCCC7)c6)nc45)nc23)c1` [Compound 742, N^1-(3-Fluoro-5-(2-(5-(5-(2-(pyrrolidin-1-yl)ethoxy)pyridin-3-yl)-1H-pyrazolo[4,3-b]pyridin-3-yl)-3H-imidazo[4,5-c]pyridin-7-yl)phenyl)-N^2,N^2-dimethylethane-1,2-diamine], the values for the inhibition at 10 µM (in experiment [1]; in the experiment with SW480 colon cancer cells) were 17.1% and 8.2%, respectively. In addition, the EC50 in experiment [1] is greater than 10 µM; in the experiment on SW480 colon cancer cells, greater than 10 µM; with IL-6 in THP-1 cells, 8.86 µM.
For the molecule `CN(C)CC(=O)Nc1cncc(-c2ccc3[nH]nc(-c4nc5c(-c6cccc(F)c6)cncc5[nH]4)c3n2)c1` [Compound 925, 2-(Dimethylamino)-N-(5-(3-(7-(3-fluorophenyl)-3H-imidazo[4,5-c]pyridin-2-yl)-1H-pyrazolo[4,3-b]pyridin-5-yl)pyridin-3-yl)acetamide], the inhibition at 10 µM stood at 23% in experiment [1], 16.1% in the experiment with SW480 colon cancer cells and 20.1% with IL-6 in THP-1 cells. The concentration for a half-maximal effect (EC50) (in experiment [1]; in the experiment on SW480 colon cancer cells; in the experiment on IL-6 in THP-1 cells) was greater than 10 µM each time.
In the case of `CC(C)C(=O)Nc1cncc(-c2ccc3[nH]nc(-c4nc5c(-c6ccccc6F)cncc5[nH]4)c3n2)c1` [Compound 65, N-(5-(3-(7-(2-fluorophenyl)-3H-imidazo[4,5-c]pyridin-2-yl)-1H-pyrazolo[4,3-b]pyridin-5-yl)pyridin-3-yl)isobutyramide], the inhibition at 10 µM came out at 1% in experiment [1], 0% in the experiment with SW480 colon cancer cells and 28.2% with IL-6 in THP-1 cells. Moreover, the EC50 (in experiment [1]; with SW480 colon cancer cells; with IL-6 in THP-1 cells) was greater than 10 µM in each case.
